# Test results published in a melting point compilation (Tetko et al.; mined from patent text by program, amines drawn as free bases though some values may be those of a salt).
row,melting point [°C],Structure (SMILES)
1,251,COc1ccc(C(=O)c2ccc3cc(C(=O)c4ccc(OC)cc4)ccc3c2)cc1
2,197,OC1CSC(Oc2ccnc(-c3cccnc3)c2)C(O)C1O (stereo not drawn)
3,181 to 183,COc1cn(-c2ccc(OCc3ccccc3)cc2F)nc(-c2ccnn2-c2ccccc2)c1=O
4,157 to 160,Clc1c(-c2ccc(OCc3ccccc3)cc2)[nH]c2ccc(OCc3ccccc3)cc12
5,179 to 181,Nc1nc2ccccc2n1CCCN1CCCCC1
6,75 to 77,COC(=O)CNc1cc(F)cc(F)c1
7,168 to 171,CC(C)(F)c1nc[nH]c(=O)c1Cl
8,77 to 80,COCCc1nc2c(N)nc3ccccc3c2n1CCCCNC(=O)c1ccc(-n2cccc2)nc1
9,199 to 201,CCOc1nn(CCOc2ccc3ccccc3c2CC(=O)O)cc1C(=O)NCc1ccc(Cl)cc1Cl
10,168 to 172,O=C(O)c1ccc(CC(=O)c2ccccc2Cl)cc1
11,290 to 292,Nc1ccc2c(c1)CCc1cc(=O)[nH]nc1-2
12,125 to 127,COc1ccccc1-c1cc(=O)cc(N2CCOCC2)o1
13,160,CS(=O)(=O)c1ccc(C(O)c2cccc3ccccc23)cc1 (stereo not drawn)
14,139,Cc1cc(CSc2cccc(OCc3cccc4ccccc34)c2)oc(=O)c1
15,170 to 172,CCOC(=O)c1[nH]cnc1CC
16,248 to 250,COc1cc2nc(N)nc(-c3ccc(O)c(I)c3)c2cc1OC
17,72 to 74,CCCCOC(=O)CS(=O)C(C)c1ccc(-c2ccccc2F)cc1 (stereo not drawn)
18,107 to 108,CCCC[C@H](NC(=O)[C@H](CC(C)C)NC(=O)c1cc(F)c(F)c(F)c1F)C(=O)CSCc1ccco1
19,148 to 149,CC1(COc2cc(/C=C/C(=O)O)n(Cc3ccc(C(F)(F)F)cc3Cl)n2)COC1
20,228 to 231,CCCCCc1cc2c(nc(O)n2CC2CCN(S(C)(=O)=O)CC2)c(N)n1
21,135 to 137,CC(C)(C)C(=O)SCC1CCCCCCCSC[C@@H](C(=O)OCc2ccccc2)NC1=O (stereo partly drawn)
22,44 to 46,CCCCCCCCCC(=O)Oc1ccc(N)cc1OC(=O)CCCCCCCCC
23,91 to 92,CC1(C)OC(=O)C(=CC2CC2)C(=O)O1
24,250 to 260,N[C@H]1CCN(c2cc3c(cc2F)c(=O)c(C(=O)O)cn3-c2nc[nH]n2)C1

row,melting point [°C],Structure (SMILES)
1,164 to 165,CNCC1CC(C)(O)c2ccc(S(=O)(=O)c3ccccc3)cc2O1 (stereo not drawn)
2,176,Cn1ncnc1COc1nn2c(-c3ccccc3F)nncc2c1-c1cccc(F)c1
3,248 to 250,Cc1cc(C)cc(Oc2c(CO)c(C)[nH]c(=O)c2I)c1
4,196 to 199,O=C(CCl)NCc1c(O)ccc2c1CCCC2=O
5,70 to 71,COc1cnc2c(c1)c(CCNC(=O)c1ccco1)c1n2CCCO1
6,79 to 81,CC(C)C[C@H](NC(=O)[C@@H]1CCC(=O)O1)C(=O)OC(C)(C)C
7,82 to 86,COc1cc(C(=O)c2ccccc2N)ccn1
8,168 to 170,CC(=O)COc1ccc2ccc(=O)oc2c1
9,219 to 229,COC1C(C)OC(OC2CC(C)(O)C(C(=O)O)c3cc4c(c(O)c32)C(=O)c2c(O)cc3c(c2C4=O)OC2OC3(C)C(O)C(N(C)C)C2O)C(OC)C1(C)OC (stereo not drawn)
10,228 to 230,CNc1nc(-c2cccc(NC(=O)c3ccncc3)c2)c2cc(OC)c(OC)cc2n1
11,287 to 289,N#Cc1cccc2c(O)c(C(=O)NCc3ccc(Cl)cc3)cnc12
12,> 310,O=C(O)c1cc2cc(Cl)ccc2[nH]c1=O
13,168 to 170,COc1ccc(OC)c2c1COC2=O
14,181 to 182,Nc1ccc(C(=O)N2CCNC(=O)C2c2cccs2)cc1 (stereo not drawn)
15,120 to 121,N#Cc1cccc(N2CCc3cc(Cl)ccc32)c1
16,156 to 158,COc1ccc(N2CCOCC2)c2sc(C(=O)NCc3ccccc3)nc12
17,145 to 148,CC1Cc2c(N3C(=O)C4CCCCN4C3=O)ccc(Cl)c2O1 (stereo not drawn)
18,106 to 108,O=C1Nc2ccc(NCCCc3ccccc3)cc2C12OCCO2
19,179 to 181,O=C1CCn2c1c(Sc1ccccc1)c1ccccc12
20,160 to 164,COC(=O)c1ccc(C(c2ccccc2)(c2ccccc2)c2ccccc2)cn1
21,193 to 195,O=S(=O)(CS(=O)(=O)/C(F)=C(/F)c1c(F)c(F)c(F)c(F)c1F)/C(F)=C(/F)c1c(F)c(F)c(F)c(F)c1F
22,128,CC(C)(C)OC(=O)NNc1ccc(N)cc1
23,115 to 118,Cc1ncc(NC(=O)OCc2ccccc2)c(=O)n1CC(=O)NC(Cc1ccccc1)C(=O)C(F)(F)F (stereo not drawn)
24,119 to 120,CC(C)c1nn(-c2ccc(C(F)(F)F)cn2)cc1CCCCOc1nn(-c2ccccc2)cc1CC(=O)O

row,melting point [°C],Structure (SMILES)
1,106 to 107,CCCOc1ccccc1-c1ncc(C(=O)OCC)c(=O)[nH]1
2,217 to 219,COc1cc(C=C(C#N)C(=O)Nc2cccc(Cl)c2)cc(Br)c1O
3,69.4,O=C1N(c2cc(Cl)cc(Cl)c2)C(=O)C2(Cc3ccc(Br)cc3)CCCN12 (stereo not drawn)
4,51 to 53,CC(CNC(=O)c1ccc(N2CCC(N3C(=O)C(F)(F)c4ccccc43)CC2)nn1)C1CC1 (stereo not drawn)
5,118 to 119,CCOC(=O)/C=C/c1cn(-c2ccc(C(F)(F)F)cc2)nc1C(C)C
6,204 to 208,CC(C)n1nc(-c2cnc3[nH]cc(C(=O)N[C@H](C)C(=O)N4CC(C#N)C4)c3n2)c2ccc(Cl)cc21
7,189 to 190,C#CCNc1cc(C(=O)OCC)cc(S(N)(=O)=O)c1Oc1ccccc1
8,35 to 38,Cc1ccc(S(=O)(=O)NCCOCCO)cc1
9,119 to 121,O=C(CC(CNS(=O)(=O)c1ccc(Oc2ccccc2)cc1)c1ccc(Cl)cc1)Nc1ccc(C(=O)O)cc1 (stereo not drawn)
10,216 to 219,NC(Cc1ccccc1)C(=O)NC1CCN(c2nc3c(cc2F)c(=O)c(C(=O)O)cn3C2CC2)C1 (stereo not drawn)
11,89,CC(=O)C=CSc1ncc(Cl)cn1
12,159 to 163,O=C(O)c1ccc(-c2c3ccccc3nn2Cc2ccccc2)cc1
13,190 to 194,CS(=O)(=O)c1ccc(-c2cnn(CC(F)(F)F)c(=O)c2Nc2cc(F)cc(F)c2F)cc1
14,137 to 140,Cc1ccc(C(=O)C(=NN)c2ccc(C)cc2)cc1
15,133 to 136,O=S(=O)(C(/C=C/c1ccc(F)cc1)c1c(F)c(F)c(F)c(F)c1F)C(/C=C/c1ccc(F)cc1)c1c(F)c(F)c(F)c(F)c1F (stereo not drawn)
16,62 to 64,CCOC(Cc1ccc(OCCN2CCC(C)(C)c3cc(C(=NOC)c4ccccc4)ccc32)cc1)C(=O)O (stereo not drawn)
17,241,Cc1cc(C(=O)O)c2cccc(OCc3ccccc3)c2n1
18,158 to 160,COCCOc1cccc(-c2cncc(C#N)c2Nc2ccc3[nH]ccc3c2C)c1
19,242,CC1(C)CC(O)C(C)(C)c2cc(Cn3cccn3)c(/C=C/c3ccc(C(=O)O)cc3)cc21 (stereo not drawn)
20,159 to 161,Cc1c(NC(=O)CC(C)(C)C)c(C)c2c(c1C(O)CO)OCC2c1ccc(C(C)C)cc1 (stereo not drawn)
21,181 to 182,COc1nc2cc(Cl)c(C)c(N)c2nc1OC
22,151,O=[N+]([O-])c1cc(F)ccc1OC1CCC(O)CC1 (stereo not drawn)
23,168 to 174,N#Cc1ccc2c(c1)ncn2-c1cccc(Br)c1
24,99 to 101,COC(=O)c1cc(Cl)sc1N

row,melting point [°C],Structure (SMILES)
1,110 to 113,Cc1ccc(CC2CCCN(c3nc(C)c(C(=O)NCc4ccccc4)s3)C2=O)cc1 (stereo not drawn)
2,204 to 207,CC(C)c1nc2ccccn2c(=O)c1Br
3,131,Cc1ccc(S(=O)(=O)OCCCC2CCN(C(c3ccccc3)(c3ccccc3)c3ccccc3)CC2)cc1
4,192 to 193,O=C(O)Cc1nn(Cc2nc3cc(C(F)(F)F)ccc3s2)c(=O)c2nccnc12
5,120,O=C1NC(=O)C(=Cc2ccc(OCCN3C(=O)SC(c4ccccc4)C3=O)cc2)S1 (stereo not drawn)
6,213 to 214,CC(C)(C)OC(=O)N1CCC2(CC1)C(=O)NCN2c1ccccc1
7,136 to 137,COc1cc2c(cc1OCc1ccccc1)CCN(Cc1cc(OC)c(OC)c(OC)c1)C2=O
8,> 300,O=C(O)Cn1c(=O)c(=O)[nH]c2cc(C(F)(F)F)c(-n3ccc(CNCc4ccccc4)c3)cc21
9,160 to 162,Cc1cccc(Cl)c1NC(=O)Nc1ccc(CC(=O)NC(CC(C)C)c2ncc(CCC(=O)O)s2)cc1 (stereo not drawn)
10,106 to 108,O=c1nc(N2CCOCC2)ccn1C1OC(CO)C(O)C1O (stereo not drawn)
11,156,COc1ccc2[nH]c(C(=O)N3CCc4cc(C(=O)NO)ccc4C3)cc2c1
12,89 to 91,Clc1ccc(-c2ccnc(CN3CCC(c4ccc(Cl)cc4)CC3)c2)cc1
13,240,Cc1c(O)cccc1C1=N[C@H]([C@H](O)CN2C[C@H]3CCCC[C@H]3C[C@H]2C(=O)NC(C)(C)C)CO1
14,158 to 160,O=C(N[C@@H]1CN(C2CCCCC2)C[C@H]1O)c1ccc(Cl)cc1 (relative stereo)
15,48 to 49,CCOC(=O)Cn1cccc(NS(=O)(=O)Cc2ccccc2)c1=O
16,62 to 64,COc1ccc(-c2ccccc2)cc1OC1CCCC1
17,139 to 140,CC(=O)N1CCNC(=O)C1c1ccc(F)cc1 (stereo not drawn)
18,202 to 203,CC1=C(C(=O)OC(C)C)C(c2cccc([N+](=O)[O-])c2)N(C(=O)N(C)C)C(N)=N1 (stereo not drawn)
19,145 to 147,CCCCc1oc2ccc(-c3nnn[nH]3)cc2c1C(=O)c1ccc(OCCCN(CCCC)CCCC)cc1
20,54 to 55,CCC(=O)C(CCCCCCCOc1ccc(OCc2ccccc2)cc1)C(=O)CC
21,189,COc1cc(OC)nc(NC(=O)NS(=O)(=O)c2ccccc2C2=NOCCO2)n1
22,135 to 137,Cc1nc(N2CCN(Cc3ccccc3)S2(=O)=O)sc1C(=O)NCc1ccccc1

row,Structure (SMILES),melting point [°C]
1,CN1CC(CCCl)Oc2ncc(Cl)cc2C1=S (stereo not drawn),125 to 127
2,CN1CCc2c(Cl)ccc3c4c(n(c23)CC1)CCCCC4,132 to 134
3,COCN1C(=O)CN2CCOC2(c2ccccc2Cl)c2cc(Cl)ccc21 (stereo not drawn),144 to 147
4,CC1CCC2(C)C(=CCC3C4CCC(=O)C4(C)CCC32)C1 (stereo not drawn),148 to 150
